Measured values: patent US20030073729A1, “Medicaments for diabetic complication and neuropathy, and uses thereof” (AJINOMOTO CO. INC, priority 2000, published 2003)

Legend:
[1] = test system: Na^+/K^+-ATPase activity in the sciatic nerve; assay: Na+/K+-ATPase activity in sciatic nerve of GK rats; assay type: in vivo; details: GK rat, 23 weeks after start of oral administration, nateglinide 50 mg/kg twice a day; control group 87.6±9.8, normal control 110.5±7.7
Protocol: In the same manners as those in the Example 1, the group formation for the test animals, the feeding of the animals and the administration of medicinal compounds (drug) to be tested to the animals were performed. At twenty-three weeks after the start of the drug administration (the age of 37 weeks), the rats were killed and the sciatic nerves were excised. A Na^+/K^+-ATPase activity in the sciatic nerve was measured based on the method described in Green et al., Journal of Clinical Investigation, vol.72, 1058-1063 (1983).

GK rat [2] = assay: Motor nerve conduction velocity (tail nerve) in GK rats; assay type: in vivo; details: 23 weeks after start of oral administration twice a day, glibenclamide 1 mg/kg, nateglinide 50 mg/kg, control group 48.2±1.3, normal control 55.2±1.8
Protocol: An animal test was conducted on a set of the following four groups, and nateglinide and glibenclamide were each suspended into 0.5% methyl cellulose (MC) to give a solution for administration.
GKrats( :male) as a spontaneous diabetic model and normal Wistar rats ( : male) were introduced at the age of 6 weeks.
From the age of 7 weeks, they were kept under a light control (dark term: 7:00 a.m. to 7:00 p.m.; light term: 7:00 p.m. to next morning 7:00) in a feeding limit condition, in which a feed was given twice a day, each only for 1 hour at an interval of 6 hours (9:00 a.m. to 10:00 a.m., and 3:00 p.m. to 4:00 p.m.).
Everyday from the age of 14 weeks, 0.5% MC, glibenclamide (1 mg/kg) or nateglinide (50 mg/kg) was forcibly administered orally just before each feeding twice a day (at 9:00 a.m. and 3:00 p.m.) at an interval of 6 hours.
Twenty-three weeks after the start of the drug administration (the age of 37 weeks), in order to examine an influence on diabetic complications, the motor nerve conduction velocity was measured according to the method described in Cameronetal., Diabetologia, Vol.39, p.1047-1054 (1996), using a tail nerve.

GK rat [3] = assay: Total cholesterol concentration in blood plasma of GK rats; assay type: in vivo; details: fasted 17 hours, 4, 14 and 23 weeks after start of administration, glibenclamide 1 mg/kg, nateglinide 50 mg/kg twice a day, FIG. 2
Protocol: In the same manners as those in the Example 1, the groups formation for the test animals, the feeding of the animals and the administration of medicinal compounds (drug) to be tested to the animals were performed. At one week before the start of the drug administration (the age of 13 weeks) for the animals, and at four weeks (the age of 18 weeks), fourteen weeks (the age of 28 weeks) and twenty-three weeks (the age of 37 weeks) each after the start of the drug administration, the blood samples were taken from the jugglar vein after fasting (abstinence from food) for 17 hours. The total cholesterol concentration in the blood plasma was measured by means of the cholesterol oxidase test method using the Fuji […] analyzer.

Zucker Fatty rat = assay: Triglyceride concentration in blood plasma after fat emulsion loading, Zucker Fatty rat; assay type: in vivo; details: for area under the curve (AUC) of the triglyceride until four hours after the load: Zucker Fatty rat, fat emulsion load, nateglinide 50 mg/kg or voglibose 0.2 mg/kg orally
Protocol: (§1) Using the postprandial hyper lipemiamodel rats (10rats) thus obtained, in a crossover method, an influence of the drug administered on a triglyceride concentration in blood plasma (a postprandial hyperlipemia- suppressing effect) was examined. That is, nateglinide (50 mg/kg) or voglibose (0.2 mg/kg), an alpha-glucosidase inhibitor as a control was administered orally, just before loading with the fat emulsion, and the blood samples were taken from a tail vein with time by four hours after the administration.
(§2) A triglyceride concentration in the blood plasma was measured by means of the Fuji Drichem analyzer.
The same examinations were also conducted with the use of a Zucker Fatty rat which is another hyperlipidemic animal.
As a result of fractional analysis of lipoprotein by means of anagarose gel electrophoresis, amarked increase of fractions in the origin area and pre β subfractions, which are thought to contain chylomicron, VLDL (very low density lipoprotein) and so on which are said to correlate with an angiopathy and an arteriosclerosis was observed.

[4] = test system: vWF concentration in the serum; assay: vWF concentration in serum of GK rats (ELISA); assay type: in vivo; details: GK rat, 23 weeks after start of administration, nateglinide 50 mg/kg twice a day; relative to normal control group 100; control group 184.8±24.3
Protocol: In the same manners as those in the Example 1, the feeding of the animals for the test animals and the administration of medicinal compounds (drug) to be tested to the animals were performed. At twenty-three (23) weeks after the start of the drug administration (the age of 37 weeks), the blood samples were taken from the postcaval vein. The vWF concentration in the serum was measured by means of the ELISA method using anti-human vWF antibody (made by DAKO Co.).

GK rats = assay: Triglyceride concentration in blood plasma after fat emulsion loading, GK rats; assay type: in vivo, rat; details: fat emulsion (Intralipos, 2 g/kg) load, crossover, nateglinide 50 mg/kg or voglibose 0.2 mg/kg orally just before loading
Protocol: as §1, §2

| Structure (SMILES) | Na^+/K^+-ATPase activity in the sciatic nerve [1] | motor nerve conduction velocity (GK rat [2]) | total cholesterol concentration in the blood plasma (GK rat [3]) | area under the curve (AUC) of the triglyceride until four hours after the load (Zucker Fatty rat) | increase of lipoprotein fractions in the origin area and pre β subfractions (agarose gel electrophoresis) (Zucker Fatty rat; after fat emulsion load, fractions thought to contain chylomicron, VLDL) | vWF concentration in the serum [4] | increase of area under the curve (AUC) of the triglyceride during four hours after the loading (GK rats) |
| --- | --- | --- | --- | --- | --- | --- | --- |
| CC(C)[C@H]1CC[C@H](C(=O)N[C@H](Cc2ccccc2)C(=O)O)CC1 [nateglinide, (−)-N-(trans-4-isopropylcyclohexane-carbonyl)-D-phenylalanine] | 99.5±7.6 μmol ADP/g/hr | 55.9±1.3 m/sec | marked decrease | 15 ± 69 mg·h/dL | suppressed | 124.5±21.5% | 81 ± 22 mg·h/dL |
| OCC(CO)N[C@H]1C[C@](O)(CO)[C@@H](O)[C@H](O)[C@H]1O [voglibose] | – | – | – | 501 ± 112 mg·h/dL | – | – | 164 ± 17 mg·h/dL |
| COc1ccc(Cl)cc1C(=O)NCCc1ccc(S(=O)(=O)NC(=O)NC2CCCCC2)cc1 [glibenclamide] | – | 52.3±0.9 m/sec | change in the cholesterol value was not observed | – | – | – | – |
